From patent US10449168B2 (The University of Toledo, priority 2015, dated 2019)
Entries after “also recorded” stand apart in the source; their conditions may differ.

Experiments:
Type in all cases: biochemical
[1] = target: T1, aspartate N-acetyltransferase (ANAT) (Homo sapiens, UniProt Q8N9F0); test: ANAT substrate selectivity (acetyl group acceptor); details: glutamate vs. aspartate as acetyl acceptor
T1 sequence (Q8N9F0 1-302): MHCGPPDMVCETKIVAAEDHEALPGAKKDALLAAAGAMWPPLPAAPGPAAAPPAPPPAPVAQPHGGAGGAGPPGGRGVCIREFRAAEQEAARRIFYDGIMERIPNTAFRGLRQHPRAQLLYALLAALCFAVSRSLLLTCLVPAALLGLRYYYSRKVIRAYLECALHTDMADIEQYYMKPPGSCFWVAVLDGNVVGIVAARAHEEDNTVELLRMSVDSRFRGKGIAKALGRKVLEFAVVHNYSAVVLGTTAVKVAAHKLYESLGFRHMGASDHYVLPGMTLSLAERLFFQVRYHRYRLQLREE
Description: ANAT is difficult to purify.

[2] = target: Streptococcus pneumoniae aspartate semialdehyde dehydrogenase (spASADH) (Streptococcus pneumoniae, UniProt Q8DQ00); test: biochemical; details: relative to parent or neighbouring derivative
[3] = target: T2, Vibrio cholerae aspartate semialdehyde dehydrogenase (vcASADH) (Vibrio cholerae serotype O1, UniProt P23247); test: biochemical; details: relative to parent or neighbouring derivative
T2 construct: made in house
T2 sequence (P23247 whole entry): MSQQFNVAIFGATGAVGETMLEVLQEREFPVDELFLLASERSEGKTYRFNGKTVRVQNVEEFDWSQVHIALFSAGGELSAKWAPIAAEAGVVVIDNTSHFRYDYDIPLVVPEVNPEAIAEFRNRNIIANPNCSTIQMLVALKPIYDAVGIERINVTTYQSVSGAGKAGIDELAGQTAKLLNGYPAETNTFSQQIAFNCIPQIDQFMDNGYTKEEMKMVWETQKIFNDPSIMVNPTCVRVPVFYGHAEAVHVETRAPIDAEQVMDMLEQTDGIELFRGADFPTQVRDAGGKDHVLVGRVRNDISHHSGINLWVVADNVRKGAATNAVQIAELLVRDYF

[4] = target: T3, Streptococcus pneumoniae aspartate semialdehyde dehydrogenase (spASADH) (Streptococcus pneumoniae, UniProt Q8DQ00); test: spASADH kinetic assay: reverse direction, NADPH absorbance at 340 nm; Ki from Dixon plot assuming competitive inhibition against ASA; details: pH 8.6, r.t., 0.15 mM ASA, 1.5 mM NADP, 20 mM phosphate
T3 construct: homodimer from general knowledge
T3 sequence (Q8DQ00 1-358): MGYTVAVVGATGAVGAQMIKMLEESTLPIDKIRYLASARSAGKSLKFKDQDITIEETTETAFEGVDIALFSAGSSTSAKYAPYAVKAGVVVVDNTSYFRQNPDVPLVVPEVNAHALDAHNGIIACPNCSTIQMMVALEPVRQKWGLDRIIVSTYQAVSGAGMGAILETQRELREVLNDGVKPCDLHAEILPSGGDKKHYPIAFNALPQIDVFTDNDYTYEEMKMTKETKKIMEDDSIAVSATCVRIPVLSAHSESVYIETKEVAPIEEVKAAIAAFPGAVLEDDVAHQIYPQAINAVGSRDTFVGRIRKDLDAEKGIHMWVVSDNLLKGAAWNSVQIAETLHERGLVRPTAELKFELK

[5] = target: Vibrio cholerae aspartate semialdehyde dehydrogenase (vcASADH); test: vcASADH kinetic assay: reverse direction, NADPH absorbance at 340 nm; Ki from Dixon plot assuming competitive inhibition against ASA; details: pH 8.6, r.t., 0.3 mM ASA, 1.5 mM NADP, 20 mM phosphate

Row | Structure (SMILES) | catalytic efficiency relative to that of the physiological substrate [1] | inhibition / binding affinity for spASADH (in words) [2] | inhibition / binding affinity for vcASADH (in words) [3] | Ki ([4]; FIG. 5, Table 2) [µM] | Ki ([5]; FIG. 5, Table 2) [µM] | Ki ([4]; FIG. 4, Table 1) [µM] | Ki ([5]; FIG. 4, Table 1) [µM]
1 | N[C@@H](CCC(=O)O)C(=O)O [glutamate] | less than 1% | – | – | – | – | – | –
2 | O=C(O)CN(Cc1ccc(C(=O)O)c(C(=O)O)c1)Cc1ccccc1OC(F)(F)F [Compound 27, N-(2-trifluoromethyoxybenzyl)-N-carboxymethyl-3,4-dicarboxybenzylamine] | – | did not alter the affinity | did not alter the affinity | 540 ± 32 | 708 ± 47 | – | –
3 | O=C(O)CN(Cc1cccc(OC(F)(F)F)c1)Cc1ccc(C(=O)O)c(C(=O)O)c1 [Compound 28, N-(3-trifluoromethoxybenzyl)-N-carboxymethyl-3,4-dicarboxybenzylamine] | – | did not alter the affinity | did not alter the affinity | 427 ± 31 | 684 ± 35 | – | –
4 | O=C(O)c1ccc(CN[C@@H](CO)C(=O)O)cc1C(=O)O [Compound 6, N-((2-hydroxymethyl)carboxymethyl)-3,4-dicarboxybenzylamine] | – | no appreciable effect on the binding affinity; also recorded: did not lead to enhanced affinity | no appreciable effect on the binding affinity | – | – | 324 ± 24 | 654 ± 22
5 | O=C(O)CN(Cc1ccc(C(=O)O)c(C(=O)O)c1)Cc1ccccc1C(F)(F)F [Compound 24, N-(2-trifluoromethylbenzyl)-N-carboxymethyl-3,4-dicarboxybenzylamine] | – | did not alter the affinity | did not alter the affinity | 509 ± 29 | 727 ± 60 | – | –
